The values that follow come from article PMC10615877 (Chemistry (Weinheim an der Bergstrasse, Germany), 2023).

The structures appear in SMILES notation. Read-outs that look alike come from different tables or passages of the source.

For assay [1], the system named is thioredoxin reductase (TrxR). The following applies: for inhibition: 100 µM.
The subject of a further assay is MDA-MB-468 cell line. The following applies: TNBC MDA-MB-468 cell line; cited from earlier work.
A further assay relates to plasmid pBR322 DNA. The assay is described as follows: Electrophoresis mobility shift assay with plasmid DNA. To be noted: no reducing agent, metal/DNAbp 0.2-1.0, 20 h, 37 °C.
Another assay deals with SKOV-3. The assay is described as follows: Presto Blue cell viability assay, SKOV-3. Format: cell-based, human. The following applies: read-out: IC50 SKOV-3 (ovarian), 72 hours incubation.
Another assay relates to A2780. The assay is described as follows: Presto Blue cell viability assay, A2780. The format is cell-based, human. The following applies: read-out: IC50 A2780 (ovarian), 72 hours incubation.
Another assay has as its system Caki-1. The assay is described as follows: Presto Blue cell viability assay, Caki-1. The following applies: read-out: IC50 Caki-1 (renal), 72 hours incubation. The format is cell-based, human.
The subject of the next assay is T24. The assay is described as follows: Presto Blue cell viability assay, T24. The following applies: read-out: IC50 T24 (bladder), 72 hours incubation. The format is cell-based, human.
Assay [2] deals with MDA-MB-157 cells. The following applies: read-out: IC50 2D MDA-MB-157; cited from earlier work.
The subject of the next assay is MDA-MB-231. Kind of assay: Presto Blue cell viability assay, MDA-MB-231. The format is cell-based, human. The following applies: read-out: IC50 MDA-MB-231 (breast), 72 hours incubation.
For another assay, the system named is IMR90. The assay is described as follows: Presto Blue cell viability assay, non-cancerous lung fibroblasts IMR90. Format: cell-based, human. To be noted: read-out: IC50 IMR90 (lung fibroblasts), 72 hours incubation.
Assay [3] has as its system MDA-MB-157 cells. The assay is described as follows: PrestoBlue cell viability, MDA-MB-157 2D monolayer. Format: cell-based. The following applies: read-out: IC50 2D MDA-MB-157; 72 hours incubation, Presto Blue.
Assay [4] has as its system human umbilical vein endothelial cells (HUVEC). The assay is described as follows: Endothelial tube formation assay. To be noted: IC10 concentration, 16 h. Format: cell-based.
Assay [5] concerns MDA-MB-231 cells. Kind of assay: Annexin V / propidium iodide apoptosis assay by flow cytometry. To be noted: 72 h incubation with IC50, MDA-MB-231. Format: cell-based, human. For orientation: Flow cytometry measures light scatter and fluorescence of single cells or particles in a stream.
For a further assay, the system named is A549. The assay is described as follows: Presto Blue cell viability assay, A549. The format is cell-based, human. The following applies: read-out: IC50 A549 (lung), 72 hours incubation.
The test system of assay [6] is MDA-MB-231 cells. To be noted: MDA-MB-231 TNBC cell line, oxaliplatin treatment alone; cited from earlier work.
For a further assay, the system named is MDA-MB-231 cell line. Format: cell-based, human. The following applies: IC20 concentration, 24 h.

In general, inhibition refers to the drop in the measured response relative to a control, in per cent. `CC(=O)OC[C@H]1O[C@@H]([S-])[C@H](OC(C)=O)[C@@H](OC(C)=O)[C@@H]1OC(C)=O.CCP(CC)CC.[Au+]` [Auranofin]: in [1] (1 μM of metal compound, 72 h, MDA-MB-231 cells), the “inhibition of TrxR activity” value is 100%. Also, the inhibition in [1] stood at 100%.
As for `N.N.O=C([O-])C1(C(=O)[O-])CCC1.[Pt+2]` [Carboplatin], the apoptosis entry in the assay on MDA-MB-468 cell line is “ca. 60%”.
The term IC50 denotes the concentration needed to halve the response being measured. With `N.N.[Cl][Pt][Cl]` [cisplatin], in the assay with plasmid pBR322 DNA, the “plasmid pBR322 band mobility (metal-DNA binding)” value (“plasmid pBR322 band mobility” below) is “displayed bands for expected DNA-drug interactions”. Moreover, the IC50 in the assay on SKOV-3 was 3.84 ± 0.39 µM; with A2780, 1.4 ± 0.31 µM; with Caki-1, 3.21 ± 0.88 µM; in the assay on T24, 2.86 ± 0.36 µM; in the assay on MDA-MB-157 cells [2], 21.6 µM; in the assay with MDA-MB-231, 7.46 ± 0.62 µM. In addition, the IC50 in the assay with IMR90 stood at 6.21 ± 0.08 µM. Moreover, the inhibition in assay [1] stood at 26.4%.
As to `O=C1[O][Pt]2([NH][C@@H]3CCCC[C@H]3[NH]2)[O]C1=O` [oxaliplatin], the “plasmid pBR322 band mobility” value in the assay on plasmid pBR322 DNA is listed as “displayed bands for expected DNA-drug interactions”. The IC50 in the assay with MDA-MB-157 cells [3] was 26.6 ± 1.7 µM; with SKOV-3 it was 42.6 ± 3.6 µM; in the assay with A2780 it was 1.82 ± 0.02 µM; in the assay on Caki-1, 8.21 ± 0.07 µM; in the assay on A549, 15.8 µM; with T24, greater than 100 µM. The IC50 was 10.1 ± 0.89 µM with MDA-MB-231 and 29.8 ± 1.3 µM in the assay on IMR90. Further, the “disruption of tube length (TL)” value in [4] turned out to be 8%. Also, the “disruption of tube nodes (TN)” value in [4] was 14%. The “increase of early apoptosis” value with MDA-MB-231 cells [5] amounted to 30%. Besides, the inhibition in [1] stood at 29.7%. Also, in the assay with MDA-MB-231 cells [6], the increase in apoptosis is recorded as 30%. Further, the “inhibition of migration (wound-healing)” value with MDA-MB-231 cell line came to 20%.
Take `N.N.[Cl-].[Cl-].[OH-].[OH-].[Pt+4]` [oxo-cisplatin, [Pt(NH3)2Cl2(OH)2]]: the “plasmid pBR322 band mobility” value in the assay with plasmid pBR322 DNA is “did not change”. The IC50 stood at 38.6 ± 4.4 µM with SKOV-3; 2.7 ± 0.4 µM in the assay with A2780; 33.1 ± 2.9 µM in the assay on Caki-1; 67.8 µM with A549; 69.9 ± 4.9 µM in the assay on T24; 52.02 ± 0.08 µM in the assay on MDA-MB-231. Also, the IC50 in the assay with IMR90 was 53.5 ± 4 µM. The inhibition in assay [1] is 66%.
